In PMC9320886, “Daily Intraperitoneal Administration of Rosiglitazone Does Not Improve Lung Function or Alveolarization in Preterm Rabbits Exposed to Hyperoxia” (Pharmaceutics, 2022):
pEC50: −log10 of the molar value. Read-outs that look alike come from different tables or passages of the source.

How the values were obtained:
[1] = molecular target: T1, human PPARγ (Homo sapiens, UniProt P37231); test: human PPARγ nuclear reporter assay (luciferase); conditions: reporter cells incubated 24 h, luminescence
T1 sequence (P37231 1-505): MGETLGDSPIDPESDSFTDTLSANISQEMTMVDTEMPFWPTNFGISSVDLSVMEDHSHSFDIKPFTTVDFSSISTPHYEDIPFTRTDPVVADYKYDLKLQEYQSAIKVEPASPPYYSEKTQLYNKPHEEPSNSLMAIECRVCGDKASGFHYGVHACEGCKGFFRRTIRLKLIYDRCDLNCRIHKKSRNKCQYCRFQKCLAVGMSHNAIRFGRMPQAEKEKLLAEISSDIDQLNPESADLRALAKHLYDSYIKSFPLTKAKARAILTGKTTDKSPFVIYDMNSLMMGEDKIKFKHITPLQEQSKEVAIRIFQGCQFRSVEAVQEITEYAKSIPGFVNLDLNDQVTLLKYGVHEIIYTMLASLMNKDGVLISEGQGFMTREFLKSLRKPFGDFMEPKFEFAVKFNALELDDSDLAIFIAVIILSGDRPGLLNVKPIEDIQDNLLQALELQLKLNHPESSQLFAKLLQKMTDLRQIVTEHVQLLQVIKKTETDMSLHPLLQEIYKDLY
Method: A human PPARγ nuclear reporter assay was purchased from Indigo Biosciences Inc. (Cat. #IB00101, State College, PA, USA) and was performed according to the manufacturer’s instructions. Briefly, the reporter cells of the assays include a luciferase reporter gene functionally linked to a PPARγ-responsive promoter. Thus, quantifying changes in luciferase expression in the treated reporter cells provides a sensitive surrogate measure of the changes in PPARγ activity. […] A sigmoidal dose–response analysis was performed to determine the half-maximal effective concentration (EC50) values for each TZD (GraphPad Prism 8.4.3, San Diego, CA, USA).

[2] = lung tissue binding by equilibrium dialysis; type: in vitro ADME; conditions: preterm rabbit lung homogenate, 4 h, 37 °C
Method: In vitro lung tissue binding was also determined by equilibrium dialysis as described above. Preterm rabbit lungs (New Zealand White, BIOIVT) were homogenized using a Precellys tissue homogenizer (Bertin instruments, Montigny-le-Bretonneux, France). Precellys lysing vials (CK28-R, Bertin instruments) were filled with lung and buffer according to the following proportion: 1 g of tissue and 5 mL of ice-cold PBS (dilution 1:6). At the end of the homogenization process, a pool of lung homogenate was prepared mixing equal amount of homogenate from three different donors. Test compounds and the positive control were diluted in the pooled lung homogenate to a final concentration of […] and then dispensed into the red chamber of the RED device inserts. PBS was dispensed into the other side. Upon completion of 4 h of incubation (37 °C under shaking), equal aliquots were removed from each chamber and matrix matched with even volumes of lung homogenate or buffer for LC-MS/MS analyses.
Free and Bound percentages of the compounds were calculated as follows:(3) %Free=Area buffer sample/Area lung homogenate sample×100 (4) % Bound=100−%Free

[3] = plasma protein binding by equilibrium dialysis; type: in vitro ADME; design: fraction unbound at 4 h: dose or concentration left out as unconfirmed; conditions: 37 °C
Method: In vitro plasma protein binding was determined in preterm rabbit plasma (New Zealand White Pooled Gender, BIOIVT, Hicksville, NY, USA) by equilibrium dialysis using Thermo Fisher Scientific Pierce RED rapid equilibrium dialysis devices (Device Inserts 8K MWCO, Thermo Fisher Scientific, Waltham, MA, USA). The assay was performed using a Tecan Evoware robotic system (Männedorf, Switzerland). Test compounds and the positive control were diluted in the pooled plasma (three donors) to a final concentration of […] and then dispensed into the red chamber of the RED device inserts. Phosphate-Buffered Saline (PBS, from Merck KGaA, Darmstadt, Germany) was dispensed into the other side. Upon completion of 4 h of incubation (37 °C under shaking), equal aliquots were removed from each chamber and matrix matched with even volumes of plasma or buffer for LC-MS/MS analyses.
Free and Bound percentages of the compounds were calculated as follows:(1) %Free=Area buffer sample/Area plasma sample×100 (2) % Bound=100−%Free

[4] = tested on: db/db diabetic mice; design: method as in PMID 11600232, PMID 28656106; conditions: compared with RGZ and PGZ; cited from earlier work
[5] = tested on: Caco-2 cell monolayers; test: Caco-2 permeability assay; type: in vitro ADME
Method: (§1) Caco-2 cells were purchased from ReadyCell (Barcelona, Spain). The cells arrived already seeded and differentiated (21-days) in 96-well plates (CacoReady 96-well kits, ReadyCell). Cells were maintained in a cell culture medium: Dulbecco’s modified Eagle’s medium (DMEM) 1 g/L glucose containing 10% fetal bovine serum, 1% L-glutamine 200 mM, and 1% penicillin (10,000 U/mL)–streptomycin (10 mg/mL), all from Merck KGaA. The buffer used in the assay was Hanks Balanced Salt Solution (HBSS, Merck). Control compounds were: sulpiride (low permeability control), metoprolol (high permeability control), talinolol (P-glycoprotein transport (Pgp) substrate control), and GF120918 (Elacridar, Pgp inhibitor), all purchased from Merck KGaA.
(§2) The day of the experiment, the integrity of the cell monolayers was assessed before and after the assay by measuring the transepithelial electrical resistance (TEER). The permeability of the compounds across the cell monolayer was determined by measuring their transport in both directions: apical to basolateral (A → B) and basolateral to apical (B → A) in the absence and presence of Elacridar (a known P-gp inhibitor). The donor working solution was prepared by dilution of the DMSO stock of the test compound or positive control with HBSS (pH 7.4) to 10 µM. For A → B directional transport, the donor working solution (with test compound or positive control, with or without P-gp inhibitor) was added to the apical (A) and HBSS was added to the basolateral (B) compartment. For B → A directional transport, the donor working solution (with positive control or test compound […], with or without P-gp inhibitor) was added to the basolateral (B) and HBSS was added to the apical (A) compartment. The assay was performed with a Hamilton Star Lab robotic system. Samples were collected at t0 and 2 h after incubation (5% CO2, 95% relative humidity, 37 °C) for LC-MS/MS analyses.
(§3) Apparent permeability (Papp) was calculated with the following equation: (5) Papp(cm/sec)=(Vr/C0)×(1/A)×(Cr(t)/t) where Vr is the volume of the solution in the receiving compartment (mL); C0 is the initial test compound concentration in the donor compartment (expressed as area ratio); A is the membrane surface area (0.14 cm^2); Cr (t) is the measured concentration of the receiver well at time t120 (expressed as area ratio); and t is time of incubation (sec).

[6] = tested on: patients with type 2 diabetes; conditions: type II diabetes patients, compared with RZG; cited from earlier work
[7] = Caco-2 permeability assay; type: in vitro ADME; conditions: human, basolateral to apical
[8] = Caco-2 permeability assay; type: in vitro ADME; conditions: human, apical to basolateral
Method: as §1, §2, §3

Cc1nn(CCOc2ccc(CC3SC(=O)NC3=O)cc2)c(=O)c2ccccc12 (stereo not drawn) [DRF-2546]
pEC50 [1]: 6.22
Lung Tissue Binding (%) [2]: 91.8 ± 1.8%
Plasma Protein Binding (%) ([3]; preterm rabbit plasma, 4 h): 98.4 ± 0.3%
plasma glucose and TG reductions [4]: superior
Papp (A–B) ([5]; apical to basolateral, 10 µM, 2 h, without Pgp inhibitor): 2.29e-05 ± 3e-07 cm/s
Papp with Pgp Inhibitor (A–B) ([5]; apical to basolateral, with Elacridar): 2.86e-05 ± 1.5e-06 cm/s
Papp (B–A) ([5]; basolateral to apical, 2 h, without Pgp inhibitor): 1.87e-05 ± 8e-06 cm/s
Papp with Pgp Inhibitor (B–A) ([5]; basolateral to apical, with Elacridar): 1.58e-05 ± 3.4e-06 cm/s

CCc1ccc(CCOc2ccc(CC3SC(=O)NC3=O)cc2)nc1 (stereo not drawn) [PGZ, pioglitazone]
Lung Tissue Binding (%) [2]: 95.6 ± 2.1%
plasma triglycerides [6]: significant reduction
fraction unbound at 4 h ([3]; both sexes, New Zealand White, preterm rabbit plasma (pooled)): 0.033
Papp B→A at 2 h, 10 µM ([7]; Caco-2, pH 7.4, with Elacridar (GF120918), concentration not given, with Elacridar, read-out: Papp with Pgp Inhibitor (B–A) (converted)): 25.4 ×10⁻⁶ cm/s
Papp B→A at 2 h, 10 µM ([7]; Caco-2, pH 7.4, 2 h, without Pgp inhibitor, read-out: Papp (B–A) (converted)): 15.3 ×10⁻⁶ cm/s
Papp A→B at 2 h, 10 µM ([8]; Caco-2, pH 7.4, with Elacridar (GF120918), concentration not given, with Elacridar, read-out: Papp with Pgp Inhibitor (A–B)): 12.3 ×10⁻⁶ cm/s
Papp A→B at 2 h, 10 µM ([8]; Caco-2, pH 7.4, 10 µM, 2 h, without Pgp inhibitor, read-out: Papp (A–B)): 11.8 ×10⁻⁶ cm/s
